Test results reported in patent US20180369203A1, “METHODS OF TREATING CANCER BY ADMINISTERING A MEK INHIBITOR IN COMBINATION WITH A PROTEASOME INHIBITOR” (The Jackson Laboratory, priority 2015, published 2018).

System: GR-GFP
Assay: GR-GFP protein stability in HEK293T cells (immunoblotting)
Assay type: cell-based
Settings: 100 nM Bortezomib, 4 hrs
From the text: This figure is related to FIG. 4. (A) HSF1 stabilizes GR-GFP proteins. Both GR-GFP and HA-Ub-K48 plasmids were co-transfected with LacZ or FLAG-HSF1 plasmids into HEK293T cells stably expressing scramble or HSF1-targeting shRNAs. HA-Ub-K48 plasmids encode a mutant ubiquitin that can be conjugated to protein substrates only via lysine 48. GFP-GR proteins were precipitated and ubiquitination was detected by anti-HA immunoblotting. (B) HSF1 maintains cellular chaperoning capacity. Denatured firefly luciferases were incubated with proteins extracted from HEK293T cells stably expressing scramble or HSF1-targeting shRNAs that were transfected with LacZ or FLAG-HSF1 plasmids (mean±SD, n=5, ANOVA). […] Levels of GFP and GR-GFP proteins were detected by immunoblotting. […] Following treatments with 20 μM U0126, 20 nM AZD6244, or 100 nM Bortezomib for 4 hrs, the chymotrypsin-like, trypsin-like, and caspase-like proteasomal activities in A2058 cells (D) and HEK293T cells (E) were measured in vitro using 25 μM Z-LLL-AMC, Boc-LRR-AMC, and Z-LLE-AMC substrates respectively (mean±SD, n=3, ANOVA). […] Lys48-specific protein ubiquitination was detected by immunoblotting in both detergent-soluble and -insoluble fractions. […] Lys48-specific protein ubiquitination was detected by immunoblotting in both detergent-soluble and -insoluble fractions of HEK293T cells that stably expressed scramble or MEK1/2-targeting shRNAs. […]

## CC(C)C[C@H](NC(=O)[C@H](Cc1ccccc1)NC(=O)c1cnccn1)B(O)O [Bortezomib, bortezomib]
  GR-GFP protein level: caused GR-GFP accumulation
